PubChem BioAssay (NCI)
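These data come from cells grown in 96-well plates and exposed to compound for 48 hours at five concentrations. TGI is the concentration that stops growth completely.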

Experiments:
Assay in all cases: NCI anticancer screen, dose series, 48 h
A498 renal = test system: A498 renal
A549 NSCLC = test system: A549 NSCLC
ACHN renal = test system: ACHN renal
CAKI-1 renal = test system: CAKI-1 renal
CCRF-CEM leukemia = test system: CCRF-CEM leukemia
COLO 205 colon = test system: COLO 205 colon
DU-145 prostate = test system: DU-145 prostate
EKVX NSCLC = test system: EKVX NSCLC
HCC-2998 colon = test system: HCC-2998 colon
HCT-116 colon = test system: HCT-116 colon
HCT-15 colon = test system: HCT-15 colon
HL-60(TB) leukemia = test system: HL-60(TB) leukemia
HOP-62 NSCLC = test system: HOP-62 NSCLC
HS 578T breast = test system: HS 578T breast
HT29 colon = test system: HT29 colon
IGROV1 ovarian = test system: IGROV1 ovarian
K-562 leukemia = test system: K-562 leukemia
KM12 colon = test system: KM12 colon
LOX IMVI melanoma = test system: LOX IMVI melanoma
M14 melanoma = test system: M14 melanoma
MALME-3M melanoma = test system: MALME-3M melanoma
MCF7 breast = test system: MCF7 breast
MDA-MB-231 breast = test system: MDA-MB-231 breast
MDA-MB-435 = test system: MDA-MB-435
MDA-N = test system: MDA-N
MOLT-4 leukemia = test system: MOLT-4 leukemia
NCI-H226 lung = test system: NCI-H226 lung
NCI-H23 lung = test system: NCI-H23 lung
NCI-H460 lung = test system: NCI-H460 lung
NCI-H522 lung = test system: NCI-H522 lung
NCI/ADR-RES ovarian = test system: NCI/ADR-RES ovarian
OVCAR-3 ovarian = test system: OVCAR-3 ovarian
OVCAR-4 ovarian = test system: OVCAR-4 ovarian
OVCAR-5 ovarian = test system: OVCAR-5 ovarian
OVCAR-8 ovarian = test system: OVCAR-8 ovarian
PC-3 prostate = test system: PC-3 prostate
RPMI-8226 leukemia = test system: RPMI-8226 leukemia
RXF 393 renal = test system: RXF 393 renal
SF-268 CNS = test system: SF-268 CNS
SF-295 CNS = test system: SF-295 CNS
SF-539 CNS = test system: SF-539 CNS
SK-MEL-2 melanoma = test system: SK-MEL-2 melanoma
SK-MEL-28 melanoma = test system: SK-MEL-28 melanoma
SK-MEL-5 melanoma = test system: SK-MEL-5 melanoma
SK-OV-3 ovarian = test system: SK-OV-3 ovarian
SN12C renal = test system: SN12C renal
SNB-19 CNS = test system: SNB-19 CNS
SNB-75 CNS = test system: SNB-75 CNS
SR leukemia = test system: SR leukemia
SW-620 colon = test system: SW-620 colon
T-47D breast = test system: T-47D breast
TK-10 renal = test system: TK-10 renal
U251 CNS = test system: U251 CNS
UACC-62 melanoma = test system: UACC-62 melanoma
UO-31 renal = test system: UO-31 renal
786-0 renal = test system: 786-0 renal
HOP-92 NSCLC = test system: HOP-92 NSCLC
UACC-257 melanoma = test system: UACC-257 melanoma

## N#Cc1c(N)nc(Nc2cccc3ccccc23)c(C#N)c1C#N
A498 renal
  TGI: > 10 µM
A549 NSCLC
  TGI: > 10 µM
ACHN renal
  TGI: > 10 µM
CAKI-1 renal
  TGI: > 10 µM
CCRF-CEM leukemia
  TGI: 6.05 µM
COLO 205 colon
  TGI: > 10 µM
DU-145 prostate
  TGI: > 10 µM
EKVX NSCLC
  TGI: > 10 µM
HCC-2998 colon
  TGI: > 10 µM
HCT-116 colon
  TGI: > 10 µM
HCT-15 colon
  TGI: > 10 µM
HL-60(TB) leukemia
  TGI: 4.77 µM
HOP-62 NSCLC
  TGI: > 10 µM
HS 578T breast
  TGI: 8.7 µM
HT29 colon
  TGI: > 10 µM
IGROV1 ovarian
  TGI: > 10 µM
K-562 leukemia
  TGI: 9.64 µM
KM12 colon
  TGI: > 10 µM
LOX IMVI melanoma
  TGI: 4.36 µM
M14 melanoma
  TGI: > 10 µM
MALME-3M melanoma
  TGI: > 10 µM
MCF7 breast
  TGI: > 10 µM
MDA-MB-231 breast
  TGI: > 10 µM
MDA-MB-435
  TGI: > 10 µM
MDA-N
  TGI: 4 µM
MOLT-4 leukemia
  TGI: 9.2 µM
NCI-H226 lung
  TGI: > 10 µM
NCI-H23 lung
  TGI: > 10 µM
NCI-H460 lung
  TGI: > 10 µM
NCI-H522 lung
  TGI: > 10 µM
NCI/ADR-RES ovarian
  TGI: > 10 µM
OVCAR-3 ovarian
  TGI: 7.57 µM
OVCAR-4 ovarian
  TGI: > 10 µM
OVCAR-5 ovarian
  TGI: > 10 µM
OVCAR-8 ovarian
  TGI: > 10 µM
PC-3 prostate
  TGI: > 10 µM
RPMI-8226 leukemia
  TGI: 6.19 µM
RXF 393 renal
  TGI: > 10 µM
SF-268 CNS
  TGI: > 10 µM
SF-295 CNS
  TGI: > 10 µM
SF-539 CNS
  TGI: > 10 µM
SK-MEL-2 melanoma
  TGI: > 10 µM
SK-MEL-28 melanoma
  TGI: > 10 µM
SK-MEL-5 melanoma
  TGI: > 10 µM
SK-OV-3 ovarian
  TGI: > 10 µM
SN12C renal
  TGI: > 10 µM
SNB-19 CNS
  TGI: > 10 µM
SNB-75 CNS
  TGI: > 10 µM
SR leukemia
  TGI: 9.29 µM
SW-620 colon
  TGI: > 10 µM
T-47D breast
  TGI: > 10 µM
TK-10 renal
  TGI: > 10 µM
U251 CNS
  TGI: > 10 µM
UACC-62 melanoma
  TGI: > 10 µM
UO-31 renal
  TGI: > 10 µM

## CCC1=C(c2ccc(OC)cc2)CC[C@@]2(CCNC2=O)[C@@H]1C
786-0 renal
  TGI: > 100 µM
A498 renal
  TGI: > 100 µM
A549 NSCLC
  TGI: > 100 µM
ACHN renal
  TGI: > 100 µM
CAKI-1 renal
  TGI: > 100 µM
CCRF-CEM leukemia
  TGI: > 100 µM
COLO 205 colon
  TGI: > 100 µM
DU-145 prostate
  TGI: > 100 µM
EKVX NSCLC
  TGI: > 100 µM
HCC-2998 colon
  TGI: > 100 µM
HCT-116 colon
  TGI: > 100 µM
HCT-15 colon
  TGI: > 100 µM
HOP-62 NSCLC
  TGI: > 100 µM
HOP-92 NSCLC
  TGI: > 100 µM
HS 578T breast
  TGI: > 89.5 µM
HT29 colon
  TGI: > 100 µM
IGROV1 ovarian
  TGI: > 100 µM
K-562 leukemia
  TGI: > 95.9 µM
KM12 colon
  TGI: > 100 µM
LOX IMVI melanoma
  TGI: > 100 µM
M14 melanoma
  TGI: > 100 µM
MALME-3M melanoma
  TGI: > 100 µM
MCF7 breast
  TGI: > 100 µM
MDA-MB-231 breast
  TGI: > 100 µM
MDA-MB-435
  TGI: > 100 µM
MDA-N
  TGI: > 100 µM
MOLT-4 leukemia
  TGI: > 90.3 µM
NCI-H226 lung
  TGI: > 100 µM
NCI-H23 lung
  TGI: > 100 µM
NCI-H460 lung
  TGI: > 100 µM
NCI-H522 lung
  TGI: > 100 µM
NCI/ADR-RES ovarian
  TGI: > 100 µM
OVCAR-3 ovarian
  TGI: > 100 µM
OVCAR-4 ovarian
  TGI: > 100 µM
OVCAR-5 ovarian
  TGI: > 100 µM
OVCAR-8 ovarian
  TGI: > 100 µM
PC-3 prostate
  TGI: > 100 µM
RPMI-8226 leukemia
  TGI: > 100 µM
SF-268 CNS
  TGI: > 100 µM
SF-295 CNS
  TGI: > 100 µM
SF-539 CNS
  TGI: > 100 µM
SK-MEL-2 melanoma
  TGI: > 100 µM
SK-MEL-28 melanoma
  TGI: > 100 µM
SK-MEL-5 melanoma
  TGI: 58.7 µM
SK-OV-3 ovarian
  TGI: > 100 µM
SN12C renal
  TGI: > 100 µM
SNB-19 CNS
  TGI: > 100 µM
SNB-75 CNS
  TGI: > 100 µM
SR leukemia
  TGI: > 100 µM
SW-620 colon
  TGI: > 100 µM
T-47D breast
  TGI: > 100 µM
TK-10 renal
  TGI: > 100 µM
U251 CNS
  TGI: > 100 µM
UACC-257 melanoma
  TGI: > 100 µM
UACC-62 melanoma
  TGI: > 100 µM
UO-31 renal
  TGI: > 100 µM

## CC1=NN(c2nc(N)nc(/C(C#N)=C\C3COc4ccccc4C3=O)n2)C(C)(C)C1 (configuration not stated)
786-0 renal
  TGI: > 100 µM
A498 renal
  TGI: 63 µM
ACHN renal
  TGI: 93.7 µM
CAKI-1 renal
  TGI: > 100 µM
CCRF-CEM leukemia
  TGI: > 100 µM
DU-145 prostate
  TGI: > 100 µM
EKVX NSCLC
  TGI: > 100 µM
HCC-2998 colon
  TGI: > 100 µM
HCT-116 colon
  TGI: 75 µM
HCT-15 colon
  TGI: > 100 µM
HL-60(TB) leukemia
  TGI: 5.2 µM
HOP-62 NSCLC
  TGI: > 100 µM
HOP-92 NSCLC
  TGI: > 100 µM
HS 578T breast
  TGI: 85 µM
HT29 colon
  TGI: 69 µM
IGROV1 ovarian
  TGI: > 100 µM
K-562 leukemia
  TGI: > 100 µM
KM12 colon
  TGI: > 100 µM
LOX IMVI melanoma
  TGI: > 100 µM
M14 melanoma
  TGI: > 100 µM
MCF7 breast
  TGI: > 100 µM
MDA-MB-231 breast
  TGI: > 100 µM
MDA-MB-435
  TGI: > 100 µM
MDA-N
  TGI: 84.6 µM
MOLT-4 leukemia
  TGI: 64 µM
NCI-H226 lung
  TGI: > 100 µM
NCI-H23 lung
  TGI: 90.5 µM
NCI-H460 lung
  TGI: > 100 µM
NCI-H522 lung
  TGI: > 100 µM
NCI/ADR-RES ovarian
  TGI: 35.9 µM
OVCAR-3 ovarian
  TGI: > 100 µM
OVCAR-4 ovarian
  TGI: > 100 µM
OVCAR-5 ovarian
  TGI: > 100 µM
OVCAR-8 ovarian
  TGI: > 100 µM
PC-3 prostate
  TGI: 77.7 µM
RPMI-8226 leukemia
  TGI: 54.8 µM
RXF 393 renal
  TGI: 64.4 µM
SF-268 CNS
  TGI: > 100 µM
SF-295 CNS
  TGI: > 100 µM
SF-539 CNS
  TGI: > 100 µM
SK-MEL-2 melanoma
  TGI: 42.3 µM
SK-MEL-28 melanoma
  TGI: > 100 µM
SK-MEL-5 melanoma
  TGI: > 100 µM
SK-OV-3 ovarian
  TGI: 84.7 µM
SR leukemia
  TGI: 46.1 µM
SW-620 colon
  TGI: > 100 µM
T-47D breast
  TGI: 69.1 µM
TK-10 renal
  TGI: > 100 µM
U251 CNS
  TGI: > 100 µM
UACC-257 melanoma
  TGI: > 100 µM
UO-31 renal
  TGI: 96.8 µM
